Data from patent US20220401411A1, “ZAFIRLUKAST DERIVATIVES FOR USE AS CONTRACEPTIVE AGENTS” (Rigshospitalet, priority 2019, published 2022).
pIC50: −log10 of the molar value.

Molecular target: T1, human CatSper (Homo sapiens, UniProt Q7RTX7+Q86XQ3+Q8NEC5+Q96P56)
T1 construct: isolated motile sperm cells from freshly ejaculated semen samples of healthy human donors; endogenous in cells; host or cells: motile human sperm cells from ejaculates of healthy donors (swim-up)
Assay: Inhibition of CatSper activation in human sperm cells, Ca2+-fluorophore plate reader assay
Format: cell-based
Conditions: for Inhibition of activation of human CatSper by progesterone / Inhibition of activation of human CatSper by intracellular alkalization via NH4Cl: low μM doses, human sperm cells, [Ca2+]i fluorescence; for Inhibition of activation of human CatSper by progesterone: 500 nM progesterone; for Inhibition of activation of human CatSper by intracellular alkalization via NH4Cl: 3 mM NH4Cl; for pIC50: motile human sperm cells (swim-up), Ca2+-fluorophore, CatSper activated by 500 nM progesterone, dose inhibition curve, read-out: IC50, inhibition of progesterone-induced signals through CatSper
From the text: (§1) Isolated live and motile human sperm cells were loaded with a Ca^2+-sensitive fluorophore, washed and aliquoted to a 384-well plate placed in a fluorescence plate reader. Readouts in ΔF/F0 (%) on the y-axis reflect the intracellular concentration of Ca^2+ ([Ca^2+],) in the sperm cells as a function of time (FIG. 1, 2, 4) or dose of zafirlukast (FIG. 3).
After measuring the baseline fluorescence for 80s serially diluted doses of zafirlukast as well as a negative buffer control (FIGS. 1 and 4) were added to the sperm cells. Hereafter the measurement was continued for a few minutes before a second addition of 500 nM progesterone (FIG. 1) or 3 mM NH4Cl (FIG. 4) to activate CatSper. […] CatSper-signals induced by 500 nM progesterone (FIG. 2) in the presence of serially diluted doses of zafirlukast are used for the dose inhibition curve for zafirlukast on progesterone-induced signals through CatSper (FIG. 3).
as §1, with “5, 6, 8)” for “1, 2, 4)”, “aniline derivate” for “zafirlukast”, “7).” for “3).”
After measuring the baseline fluorescence for 80s serially diluted doses of aniline derivative as well as a negative buffer control (FIGS. 5 and 8) were added to the sperm cells. Hereafter the measurement was continued for a few minutes before a second addition of 500 nM progesterone (FIG. 5) or 3 mM NH4Cl (FIG. 8) to activate CatSper. […] CatSper-signals induced by 500 nM progesterone (FIG. 6) in the presence of serially diluted doses of the aniline derivative are used for the dose inhibition curve for aniline derivative on progesterone-induced signals through CatSper (FIG. 7).
(§2) To assess the effect of zafirlukast on CatSper in human sperm cells, we first isolated motile sperm cells from freshly ejaculated semen samples of healthy human donors through the swim-up method. Then we loaded these sperm cells with a Ca^2+-fluorophore, i.e. a molecule that emits light more intensively when [Ca^2+], increases. Hereafter we aliquoted these fluorophore-loaded sperm cells to the wells of micro-well plates and inserted the plate into a fluorescence plate reader, that measures the light emitted from the Ca^2+-fluorophore. After measuring the baseline fluorescence for 80s we added to the wells serially diluted doses of zafirlukast (FIGS. 1 and 4). Hereafter we continued the measurement for a few minutes before a second addition of 500 nM progesterone (FIG. 1) or 3 mM NH4Cl (FIG. 4) to activate CatSper.
as §2, with “the aniline derivative” for “zafirlukast”, “[Ca^2*],” for “[Ca^2+],”, “5” for “1”, “8).” for “4).”, “5)” for “1)”, “8)” for “4)”

Row | Inhibition of activation of human CatSper by progesterone | Inhibition of activation of human CatSper by intracellular alkalization via NH4Cl | pIC50 | Compound
1 | inhibits the activation of human CatSper | inhibits the activation of human CatSper | ~6.05 | COc1cc(C(=O)NS(=O)(=O)c2ccccc2C)ccc1Cc1cn(C)c2ccc(N)cc12 [aniline derivative]
2 | inhibits the activation of human CatSper | inhibits the activation of human CatSper | ~5.66 | COc1cc(C(=O)NS(=O)(=O)c2ccccc2C)ccc1Cc1cn(C)c2ccc(NC(=O)OC3CCCC3)cc12 [zafirlukast]
